Measured values published in patent US12577241B2, “Polycyclic pyridopyrazine derivative” (Shionogi & Co., Ltd., priority 2019, dated 2026).

The compounds below were run on HIV (assay: Test Example 1: Anti-HIV activity (MT-4 cells, CellTiter-Glo)). Settings: 4 days culture, CellTiter-Glo luminescence, read-out: EC50 (50% HIV inhibitory concentration).
Type: cell-based
Method: Test Example 1: Anti-HIV Activity
Serial dilutions of a test sample were prepared in a 384-well microplate by a dispensing machine. 6.25×10^4 cells/mL of a MT-4 cell suspension was dispensed at 20 μL/well to the plate containing the test sample. Then, an HIV virus solution was dispensed at 20 μL/well. The plate was mixed with a plate mixer and cultured for 4 days in a CO2 incubator. On day 4 of culture, CellTiter-Glo or CellTiter-Glo 2.0 was dispensed at 20 μL/well. The plate was reacted while being stirred with the plate mixer at room temperature for about 15 minutes. The amount of luminescence of the plate after the reaction was measured with a microplate reader. A 50% HIV inhibitory concentration (EC50) was determined from a concentration-dependent curve using the following 4 parameter logistic curve fitting model. y=A+((B−A)/(1+((C/x)^D))) • A=minimum rate of inhibition (negative control, 0%) • B=maximum rate of inhibition (positive control, 100%) • C=compound concentration at an inflection point • D=slope coefficient • x=compound concentration • y=rate of inhibition (%) (Results)
Compound `CCN1C(=O)c2c(O)c(=O)c(C(=O)NCc3cccc(Cl)c3F)cn2[C@H]2[C@H](COC)CC[C@H]21` [Compound I-013] has an EC50 of 2.5 nM.
For `CCN1C(=O)c2c(O)c(=O)c(C(=O)NCc3cccc(Cl)c3F)cn2[C@H]2CC(F)(F)C[C@H]21` [Compound I-001], the EC50 was 1.4 nM.

Same assay, conditions: Human immunodeficiency virus 1, MT4, 96 h, 4 days culture, CellTiter-Glo luminescence, read-out: EC50 (50% HIV inhibitory concentration)
`CCN1C(=O)c2c(O)c(=O)c(C(=O)NCc3ccc(F)cc3F)cn2[C@H]2CCCC[C@H]21` [Compound I-025] showed an EC50 of 2.1 nM.
`CCN1C(=O)c2c(O)c(=O)c(C(=O)NCc3cccc(Cl)c3F)cn2[C@H]2CCCC[C@H]21` [Compound I-024] was tested, and the EC50 was 1.9 nM.
In the case of `CCN1C(=O)c2c(O)c(=O)c(C(=O)NCc3cccc(Cl)c3F)cn2[C@H]2C[C@@H](COC)C[C@H]21` [Compound I-015], the EC50 is reported as 2.5 nM.
With `CCN1C(=O)c2c(O)c(=O)c(-c3nnc(Cc4ccc(F)cc4F)s3)cn2[C@H]2CCC(F)(F)C[C@H]21` [Compound I-023] the EC50 was 4.6 nM.
`CCN1C(=O)c2c(O)c(=O)c(C(=O)NCc3c(F)cc(F)cc3F)cn2[C@@H]2[C@H]1CCCC2(F)F` [Compound I-006] was tested, and the EC50 was 0.63 nM.
For `CCN1C(=O)c2c(O)c(=O)c(C(=O)NCc3cccc(Cl)c3F)cn2[C@H]2CCC[C@H]21` [Compound I-029], the EC50 was 2.2 nM.
For `CCN1C(=O)c2c(O)c(=O)c(C(=O)NCc3c(F)cc(F)cc3F)cn2[C@H]2[C@@H]3CC[C@@H](C3)[C@H]21` [Compound I-010], the EC50 was 5.2 nM.
`CCN1C(=O)c2c(O)c(=O)c(C(=O)NCc3c(F)cc(F)cc3F)cn2[C@H]2CCCC[C@H]21` [Compound I-026] showed an EC50 of 1.3 nM.
In the case of `CN1C(=O)c2c(O)c(=O)c(C(=O)NCc3nccc(Cl)c3F)cn2[C@H]2CCCC[C@H]21` [Compound I-004], the EC50 is reported as 3.3 nM.
Work on `CCN1C(=O)c2c(O)c(=O)c(-c3nnc(Cc4ccc(F)cc4F)s3)cn2[C@H]2CCCC(F)(F)[C@H]21` [Compound I-021] yielded an EC50 of 3.6 nM.
For `CCN1C(=O)c2c(O)c(=O)c(C(=O)NCc3c(F)cc(F)cc3F)cn2[C@H]2CCCC(F)(F)[C@H]21` [Compound I-008], the EC50 was 0.52 nM.
For `CCN1C(=O)c2c(O)c(=O)c(C(=O)NCc3c(F)cc(F)cc3F)cn2[C@H]2CCC[C@H]21` [Compound I-030], the EC50 was 2.6 nM.
`CCN1C(=O)c2c(O)c(=O)c(-c3nnc(Cc4ccc(F)cc4F)s3)cn2[C@H]2[C@@H]3CC[C@@H](C3)[C@H]21` [Compound I-019] showed an EC50 of 8.2 nM.
For `CCN1C(=O)c2c(O)c(=O)c(C(=O)NCc3cccc(Cl)c3F)cn2[C@H]2CCC(F)(F)C[C@H]21` [Compound I-011], the EC50 was 9 nM.
`CCN1C(=O)c2c(O)c(=O)c(C(=O)NCc3c(F)cc(F)cc3F)cn2[C@H]2CC(F)(F)C[C@H]21` [Compound I-002] showed an EC50 of 1.5 nM.
Compound `CN1C(=O)c2c(O)c(=O)c(-c3nnc(Cc4ccc(F)cc4F)s3)cn2[C@H]2CCCC[C@H]21` [Compound I-018] has an EC50 of 2.3 nM.
Work on `CN1C(=O)c2c(O)c(=O)c(C(=O)NCc3cccc(Cl)c3F)cn2[C@H]2CCCC[C@H]21` [Compound I-028] yielded an EC50 of 1.2 nM.
In the case of `CCN1C(=O)c2c(O)c(=O)c(C(=O)NCc3c(F)cc(F)cc3F)cn2[C@H]2CCC(F)(F)C[C@H]21` [Compound I-012], the EC50 is reported as 0.93 nM.
`CN1C(=O)c2c(O)c(=O)c(C(=O)NCc3c(F)cc(F)cc3F)cn2[C@H]2CCCC[C@H]21` [Compound I-027] showed an EC50 of 0.7 nM.
`CCN1C(=O)c2c(O)c(=O)c(C(=O)NCc3cccc(Cl)c3F)cn2[C@H]2CCCC(F)(F)[C@H]21` [Compound I-007] showed an EC50 of 0.7 nM.
